Laboratory results from publication PMC3057018, “Inhibition of Recombinant D-Amino Acid Oxidase from Trigonopsis variabilis by Salts” (Enzyme Research, 2011).

Experiments:
[1] = molecular target: T1, TvDAAO (recombinant His-tagged D-amino acid oxidase from Trigonopsis variabilis) (Trigonopsis variabilis, UniProt Q99042); test: DNPH end-point assay of pyruvate at […] nm; format: biochemical; set-up: gene DAO1; N-terminal hexahistidine tag, expressed in E. coli mainly as apoenzyme, metal-chelate purified, holoenzyme reconstituted with FAD; conditions: FAD added, potassium phosphate pH 8.0, 30 °C
T1 sequence (Q99042 whole entry): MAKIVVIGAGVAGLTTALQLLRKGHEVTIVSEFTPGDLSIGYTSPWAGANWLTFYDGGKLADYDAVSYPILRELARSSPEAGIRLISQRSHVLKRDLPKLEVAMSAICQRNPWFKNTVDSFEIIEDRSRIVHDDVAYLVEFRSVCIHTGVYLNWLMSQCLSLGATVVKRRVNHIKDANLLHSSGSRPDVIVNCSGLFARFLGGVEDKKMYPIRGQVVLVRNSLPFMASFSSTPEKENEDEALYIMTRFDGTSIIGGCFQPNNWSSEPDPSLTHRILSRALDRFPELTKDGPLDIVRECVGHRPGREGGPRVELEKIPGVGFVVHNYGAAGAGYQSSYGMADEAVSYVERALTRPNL

[2] = molecular target: T1, TvDAAO (recombinant His-tagged D-amino acid oxidase from Trigonopsis variabilis); test: intrinsic tryptophan fluorescence (excitation […] nm) of reconstituted holoenzyme with NaCl; format: binding; set-up: gene DAO1; N-terminal hexahistidine tag, expressed in E. coli mainly as apoenzyme, metal-chelate purified, holoenzyme reconstituted with FAD; conditions: 25 °C; FAD dissociation by NaCl followed indirectly; holoenzyme reconstituted with 5-fold FAD; noncovalent
[3] = molecular target: T1, TvDAAO (recombinant His-tagged D-amino acid oxidase from Trigonopsis variabilis); test: biochemical; set-up: gene DAO1

In the case of `C[C@@H](N)C(=O)O` [D-alanine], the “DNPH end-point assay of pyruvate at 450 nm” value [1] is reported as “measured the release of α-ketoacid from D-alanine during the reaction”.
For `Cc1cc2nc3c(=O)[nH]c(=O)nc-3n(C[C@H](O)[C@H](O)[C@H](O)COP(=O)(O)OP(=O)(O)OC[C@H]3O[C@@H](n4cnc5c(N)ncnc54)[C@H](O)[C@@H]3O)c2cc1C` [FAD], the “intrinsic tryptophan fluorescence (excitation 295 nm) of reconstituted holoenzym” value [2] was “Such an effect may be related to the loss of cofactor FAD”.
`Cl` [NaCl] was tested, and the Ki [3] was 85 mM.
